Earlier results on one compound are cited in PMC1403760 (BMC Pharmacology, 2006).

Usually EC50 stands for the midpoint of the concentration-response curve.

For the data set, the system named is HEK cells. Further details: method as in PMID 12238779. As to conditions: in these (HEK) cells; read-out: EC50 of forskolin.

Take `C=C[C@@]1(C)CC(=O)[C@]2(O)[C@@]3(C)[C@@H](O)CCC(C)(C)[C@@H]3[C@H](O)[C@H](OC(C)=O)[C@@]2(C)O1` [forskolin]: the EC50 was 10 µM.
